Reference: PMC3077571 (Nature structural & molecular biology, 2011)

Target: MBP W62F mutant (Escherichia coli, UniProt P0AEX9, S259C/W88F)
Type: binding
Settings: no sAB

`OC[C@H]1O[C@H](O[C@H]2[C@H](O)[C@@H](O)C(O)O[C@@H]2CO)[C@H](O)[C@@H](O)[C@@H]1O` (mixture of isomers) [maltose] was tested, and the “decrease in maltose binding energy caused by W62F mutation” value was ~ 2 kcal/mol.
